“And” between values parts separate entries of the source, which are not always exact repeats. Identical values can stand only once. Like-named read-outs stand apart in the source and are kept apart here.
Experiments:
Major Depression = assay: Child case studies: oral SAM-e in Major Depression (Children's Depression Inventory, clinical report); format: in vivo, human
Source text: Two girls were brought in for a consult by a pediatrician and their spouse, a nutritionist. Both parents had studied SAM-e, and preferred “a trial” before traditional anti-depressants.
Case 1. A child (34 kg.) developed increased irritability, boredom, eccentric crying, withdrawal, decreased appetite, middle insomnia, new school performance problems and sadness. They began to discuss death themes and became preoccupied with heaven, despite no new exposures to these topics. They met DSM-IV TR criteria for Major Depression, had no significant stressors in their life, and on the Children's Depression Inventory (CDI) scored a 34.
They were placed on a 200 mg SAM-e enteric-coated tablet each morning, before eating for a week. Subsequently, the dose was raised to 400 mg. […] Improvement began after 4 days on 400 mg. At three weeks, it was increased to 600 mg a day, with rapid and complete resolution of their depressive symptoms in 2 days. […] Their CDI fell to a 4. They have been on this dose for over 6 months.
Case 2. child one (24 kg.) developed new problems with crying, sadness, decreased play, and an inability to be consoled. They made new negative identity comments, i.e., “I'm no good Mommy.” The child was well liked by adults and peers, but felt “no one liked them,” They also began saying they “hated school” even though they were in the top ⅓rd of their class. Their symptoms began 4-5 months after their sibling's MD began. They met DSM-IV TR criteria for Major Depression and on the Children's Depression Inventory scored 29.
Their CDI decreased to 6 and 7. After 3 months, they were “a little sad like before” per their parent, and was increased to 200 mg each am and afternoon with a CDI of 6. They have remained on this dose for over 6 months.
Case 3. A person (86 kg.), unrelated to the girls described above, was diagnosed with Major Depression and Oppositional Defiant Disorder based on DSM-IV TR criteria from a clinical interview with parents and patient. They refused diagnostic scales. Their parents reported a 1½ year history of irritability, boredom, reactivity, decreased interest in all activities but computer games, sadness, excess sleep, fatigue, hopelessness, and trouble concentrating. […] Extensive laboratory testing and family doctor physical exam were negative.
Their mood and function improved to their baseline over 1-2 weeks according to parents, teacher and psychiatrist. Yet they had residual oppositionality. After 2-3 months the youth stopped their SAM-e due to “being sick of all the pills.” They had been taking […] tablets daily. They relapsed over the course of 3 weeks to “½” […] initial baseline depression per patient and parents. Again, they refused quantitative depression scales. Behaviorally, they stopped returning calls, became bored again, and had decreased homework performance with no identifiable new stressors. Restoring the SAM-e to three 400 mg tablets—800 mg per am and 400 after school—restored them to baseline in 5-8 days from parent report confirmed with diagnostic interview. They have remained on this dosing for approximately 22 weeks.

[1] = test system: patients with Major Depression; conditions: cited from earlier work
[2] = test system: major depressive disorder; conditions: cited from earlier work
[3] = infusions of 800 mg, placebo-controlled crossover; cited from earlier work
depressive symptoms = conditions: 195 patients, 400 mg intramuscular for 15 days; cited from earlier work

C[S+](CC[C@H](N)C(=O)O)C[C@H]1O[C@@H](n2cnc3c(N)ncnc32)[C@H](O)[C@@H]1O (some centres unmarked) [SAM-e, S-adenosyl methionine]
response over 3 weeks (Major Depression; Case 1, oral 400 mg): modest improvement
time until improvement began (Major Depression; Case 1, oral 400 mg): 4 days
side effects (Major Depression; Case 1, oral 600 mg a day): no signs of mania, anxiety, insomnia, diarrhea, abdominal pain or nausea
time to complete resolution of depressive symptoms (Major Depression; Case 1, oral 600 mg a day): 2 days
Children's Depression Inventory (CDI) on treatment (Major Depression; Case 1, oral 600 mg a day, CDI before treatment 34): 4
time to signs of improvement (Major Depression; Case 2 (person one), oral 200 mg): 2 days
side effects (Major Depression; Case 2, oral 200 mg): no side effects
time until at baseline (Major Depression; Case 2, oral 200 mg): 11 days
Children's Depression Inventory (CDI) on treatment (Major Depression; Case 2, oral 200 mg each am and afternoon, after 3 months): 6
Children's Depression Inventory (CDI) on treatment (Major Depression; Case 2, oral 200 mg, CDI before treatment 29): 6 and 7
time until restored to baseline after restart (Major Depression; Case 3, oral 800 mg per am and 400 after school): 5 to 8 days
side effects after dose reduction (Major Depression; Case 3, oral 1400 mg): loss of both side effects
time until mood and function improved to baseline (Major Depression; Case 3, oral 1400 mg): 1-2 weeks
side effects (Major Depression; Case 3, oral 1800 mg): slight tremor and slight anxiety
time course of relapse after stopping SAM-e (Major Depression; Case 3, relapse to "½" initial baseline depression): 3 weeks
self-reported effect on depression (Major Depression; both parents of Cases 1 and 2, 1200-1400 mg per day): full remission of their depression
efficacy compared with imipramine ([1]; SAM-e intramuscular 400 mg/d vs. oral IMI 150 mg/d, 4 weeks): did not differ significantly on any efficacy measure
tolerability compared with imipramine ([1]; both studies): better tolerated than IMI
efficacy compared with imipramine ([1]; intramuscular (400 mg) and oral SAM-e (1600 mg, 6 weeks) in adults): comparable to 150 mg of imipramine (IMI)
efficacy in major depressive disorder ([2]; 13 trials vs placebo, 19 trials vs tricyclic antidepressants, more than 1,400 patients): effective
efficacy in major depression versus placebo and tricyclics ([2]; intravenous and intramuscular preparations, 14 double-blind European studies): more effective than placebo and comparable to imipramine, amitriptyline and clomipramine
EEG / ERP antidepressant effects [3]: effects greater than placebo
effect on depressive symptoms (depressive symptoms): remission on both day 7 and 15
